The source of these data is ChEMBL document CHEMBL5370655.

Assay [1] concerns the target T1, Epidermal growth factor receptor (Homo sapiens, UniProt P00533, C797S/L858R/T790M).
For assay [2], the system named is PC-9. The assay is classed as functional, cell-based. The conditions noted are these: Homo sapiens, PC-9, 72 h.
The target in assay [3] is Epidermal growth factor receptor (Homo sapiens, UniProt P00533, L858R).
The test system of assay [4] is PC-9. The assay is described as follows: Antiproliferative activity against human PC-9 cells assessed as inhibition of cell growth measured after 72 hrs by CCK8 assay. The conditions noted are these: PC-9, 72 h. The format is functional, cell-based. For orientation: Tetrazolium assays rely on reduction of a dye to a coloured formazan, in cell work by metabolically active cells.

The target of assay [5] is Epidermal growth factor receptor (Homo sapiens, UniProt P00533, C797S/EX19DEL/T790M).
In assay [6] the target is Epidermal growth factor receptor (Homo sapiens, UniProt P00533, L858R/T790M). The assay is described as follows: Inhibition of EGFR L858R/T790M double mutant (unknown origin) using polyE4Y1 as substrate incubated for 5 mins with compound followed by substrate addition measured after 60 mins in presence of ATP by ADP-Glo reagent based assay. Background: ADP-Glo turns the ADP formed in a reaction into a luminescent signal.

Assay [7] deals with A-431. Nature of the assay: Antiproliferative activity against human A-431 cells assessed as inhibition of cell growth measured after 72 hrs by CCK8 assay. The format is functional, cell-based. The conditions noted are these: A-431, 72 h.
In assay [8] the test system is NCI-H1975. Nature of the assay: Antiproliferative activity against human NCI-H1975 cells assessed as inhibition of cell growth measured after 72 hrs by CCK8 assay. The format is functional, cell-based. The note with it: NCI-H1975, 72 h.
In assay [9] the target is Epidermal growth factor receptor (Homo sapiens, UniProt P00533).
Description: Inhibition of wild-type EGFR (unknown origin) using polyE4Y1 as substrate incubated for 5 mins with compound followed by substrate addition measured after 60 mins in presence of ATP by ADP-Glo reagent based assay
The target of assay [10] is T1, Epidermal growth factor receptor. The source holds these as a separate data set.
A short description of assay [11]: Induction of cell cycle arrest in human H1975-TM cells assessed as accumulation at G0/G1 phase at 500 nM measured after 24 hrs by RNase A/propidium iodide staining based flow cytometric analysis (reference value: 64.3 %). The format is functional. Background: Flow cytometry measures light scatter and fluorescence of single cells or particles in a stream.
Assay [12] can be described thus: Antitumor activity against human H1975-TM cells xenografted in BALB/c mouse assessed as tumor growth inhibition at 25 mg/kg, po measured after 25 days. The format is functional. The conditions noted are these: time 25 day.
A short description of assay [13]: Induction of cell cycle arrest in human H1975-TM cells assessed as accumulation at S phase at 500 nM measured after 24 hrs by RNase A/propidium iodide staining based flow cytometric analysis (reference value: 18.1 %). The assay is classed as functional.
Assay [14] is described as follows: Induction of apoptosis in human H1975-TM cells assessed as apoptotic cells at 500 nM measured after 24 by Annexin V-FITC and propidium iodide staining based flow cytometric analysis (reference value: 7.08 %). The note with it: time 24 hrs. The assay is classed as functional.
Assay [15] is described as follows: Induction of cell cycle arrest in human H1975-TM cells assessed as accumulation at G2/M phase at 500 nM measured after 24 hrs by RNase A/propidium iodide staining based flow cytometric analysis (reference value: 17.6 %). The assay is classed as functional.

Where only a bound is given, the exact number is not on record here.

T1 sequence (P00533 25-1210 T790M/C797S/L858R limits assumed): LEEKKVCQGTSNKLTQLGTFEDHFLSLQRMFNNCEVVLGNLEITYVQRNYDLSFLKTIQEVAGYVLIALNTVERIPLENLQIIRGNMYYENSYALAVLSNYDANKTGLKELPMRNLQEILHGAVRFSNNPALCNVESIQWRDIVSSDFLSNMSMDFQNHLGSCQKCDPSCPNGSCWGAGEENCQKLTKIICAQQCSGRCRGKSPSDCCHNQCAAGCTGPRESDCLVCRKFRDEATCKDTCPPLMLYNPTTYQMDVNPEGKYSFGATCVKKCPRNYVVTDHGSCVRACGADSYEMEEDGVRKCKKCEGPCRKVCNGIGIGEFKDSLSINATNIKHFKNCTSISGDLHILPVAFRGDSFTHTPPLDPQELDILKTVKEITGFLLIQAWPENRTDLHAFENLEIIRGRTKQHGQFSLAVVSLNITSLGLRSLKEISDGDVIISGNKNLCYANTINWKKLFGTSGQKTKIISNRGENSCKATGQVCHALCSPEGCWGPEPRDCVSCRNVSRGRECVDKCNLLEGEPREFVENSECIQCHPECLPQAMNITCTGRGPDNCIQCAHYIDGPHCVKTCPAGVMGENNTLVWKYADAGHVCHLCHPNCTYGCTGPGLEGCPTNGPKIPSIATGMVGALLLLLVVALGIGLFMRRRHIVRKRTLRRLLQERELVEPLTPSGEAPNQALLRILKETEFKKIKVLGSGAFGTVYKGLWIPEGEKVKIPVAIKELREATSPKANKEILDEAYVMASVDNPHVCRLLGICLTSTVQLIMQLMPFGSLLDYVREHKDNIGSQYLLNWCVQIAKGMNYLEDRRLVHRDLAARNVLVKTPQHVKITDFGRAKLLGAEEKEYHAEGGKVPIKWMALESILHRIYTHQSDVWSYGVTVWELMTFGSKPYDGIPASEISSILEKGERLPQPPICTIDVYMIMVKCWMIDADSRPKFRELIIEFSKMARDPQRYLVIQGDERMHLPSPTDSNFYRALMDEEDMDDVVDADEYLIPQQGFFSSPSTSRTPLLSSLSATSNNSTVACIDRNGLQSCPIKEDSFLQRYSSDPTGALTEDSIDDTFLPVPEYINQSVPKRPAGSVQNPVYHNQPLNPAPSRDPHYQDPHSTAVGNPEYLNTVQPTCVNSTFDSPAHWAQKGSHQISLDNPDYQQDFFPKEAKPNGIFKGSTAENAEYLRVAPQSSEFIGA
Sequence of Epidermal growth factor receptor (Homo sapiens, UniProt P00533, C797S/EX19DEL/T790M) (P00533 whole entry, looked up, stated change not applied): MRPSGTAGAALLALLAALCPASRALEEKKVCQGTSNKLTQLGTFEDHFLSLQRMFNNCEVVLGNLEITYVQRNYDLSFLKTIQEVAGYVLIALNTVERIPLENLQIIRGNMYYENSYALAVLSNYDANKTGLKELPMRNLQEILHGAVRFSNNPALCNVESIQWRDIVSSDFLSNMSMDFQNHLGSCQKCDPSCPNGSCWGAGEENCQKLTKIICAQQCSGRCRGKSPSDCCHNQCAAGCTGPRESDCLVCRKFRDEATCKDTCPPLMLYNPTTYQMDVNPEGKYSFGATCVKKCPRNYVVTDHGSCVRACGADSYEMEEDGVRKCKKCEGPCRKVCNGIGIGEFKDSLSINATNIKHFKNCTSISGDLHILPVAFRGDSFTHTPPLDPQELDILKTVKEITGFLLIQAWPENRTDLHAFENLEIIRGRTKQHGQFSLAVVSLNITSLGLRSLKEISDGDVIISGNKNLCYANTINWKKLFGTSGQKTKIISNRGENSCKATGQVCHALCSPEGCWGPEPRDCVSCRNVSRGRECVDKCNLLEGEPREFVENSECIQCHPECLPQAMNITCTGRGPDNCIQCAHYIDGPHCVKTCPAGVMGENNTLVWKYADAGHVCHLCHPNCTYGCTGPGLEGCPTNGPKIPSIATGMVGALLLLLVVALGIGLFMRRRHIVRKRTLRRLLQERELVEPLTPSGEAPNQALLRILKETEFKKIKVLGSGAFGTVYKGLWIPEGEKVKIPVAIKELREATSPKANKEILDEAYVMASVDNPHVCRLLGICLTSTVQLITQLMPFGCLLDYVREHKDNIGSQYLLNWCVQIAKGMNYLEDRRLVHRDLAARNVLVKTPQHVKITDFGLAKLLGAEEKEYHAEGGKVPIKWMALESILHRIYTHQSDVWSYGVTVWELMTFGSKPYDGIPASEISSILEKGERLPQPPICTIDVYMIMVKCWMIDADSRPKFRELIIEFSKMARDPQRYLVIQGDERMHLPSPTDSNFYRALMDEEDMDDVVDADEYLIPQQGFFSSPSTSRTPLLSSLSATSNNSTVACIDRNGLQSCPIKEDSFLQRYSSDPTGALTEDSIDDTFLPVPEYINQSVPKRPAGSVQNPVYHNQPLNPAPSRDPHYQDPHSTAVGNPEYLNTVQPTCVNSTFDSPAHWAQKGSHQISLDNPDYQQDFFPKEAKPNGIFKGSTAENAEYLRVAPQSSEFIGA
Sequence of Epidermal growth factor receptor (Homo sapiens, UniProt P00533) (P00533 whole entry): as the sequence (P00533 whole entry, looked up, stated change not applied) above
Sequence of Epidermal growth factor receptor (Homo sapiens, UniProt P00533, L858R) (P00533 25-1210 L858R limits assumed): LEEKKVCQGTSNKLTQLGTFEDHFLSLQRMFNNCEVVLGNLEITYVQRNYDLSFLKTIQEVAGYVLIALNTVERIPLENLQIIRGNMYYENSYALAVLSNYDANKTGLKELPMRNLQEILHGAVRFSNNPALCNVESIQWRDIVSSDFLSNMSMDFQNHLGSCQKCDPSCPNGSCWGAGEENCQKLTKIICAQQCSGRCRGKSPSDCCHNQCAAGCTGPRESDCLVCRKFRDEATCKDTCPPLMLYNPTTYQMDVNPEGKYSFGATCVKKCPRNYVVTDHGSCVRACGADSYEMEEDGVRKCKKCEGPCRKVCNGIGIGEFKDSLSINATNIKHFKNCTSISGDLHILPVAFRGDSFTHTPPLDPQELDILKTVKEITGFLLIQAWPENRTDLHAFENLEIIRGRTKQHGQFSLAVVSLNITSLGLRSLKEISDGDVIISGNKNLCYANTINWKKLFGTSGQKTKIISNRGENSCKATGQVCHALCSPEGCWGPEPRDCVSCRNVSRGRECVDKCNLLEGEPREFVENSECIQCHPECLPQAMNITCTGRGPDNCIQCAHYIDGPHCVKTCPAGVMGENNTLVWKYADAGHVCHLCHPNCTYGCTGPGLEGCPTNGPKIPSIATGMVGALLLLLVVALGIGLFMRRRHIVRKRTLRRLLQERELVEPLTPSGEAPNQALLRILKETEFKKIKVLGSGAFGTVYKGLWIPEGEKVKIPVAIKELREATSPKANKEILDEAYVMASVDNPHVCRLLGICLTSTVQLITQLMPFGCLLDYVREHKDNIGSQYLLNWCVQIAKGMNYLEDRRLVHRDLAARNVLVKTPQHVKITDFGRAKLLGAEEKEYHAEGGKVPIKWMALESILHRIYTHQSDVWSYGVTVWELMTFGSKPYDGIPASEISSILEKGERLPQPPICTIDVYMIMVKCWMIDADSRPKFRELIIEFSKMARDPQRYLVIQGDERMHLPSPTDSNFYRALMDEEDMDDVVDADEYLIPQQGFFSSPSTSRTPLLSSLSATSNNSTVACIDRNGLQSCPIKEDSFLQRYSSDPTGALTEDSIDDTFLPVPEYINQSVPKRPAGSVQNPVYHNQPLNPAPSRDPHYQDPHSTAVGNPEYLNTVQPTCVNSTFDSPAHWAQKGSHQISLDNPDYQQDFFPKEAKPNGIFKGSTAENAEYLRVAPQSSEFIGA

Regarding `CCS(=O)(=O)Nc1nc(-c2ccc(F)cc2)c(-c2ccnc(Nc3ccc(C4CCN(C)CC4)cc3)n2)s1`, the IC50 (commonly the concentration at which inhibition is half-maximal) in assay [1] was found to be 2.1 nM.

`CN(C)CCn1ccc2cc(Nc3nccc(-c4sc(NS(=O)(=O)c5ccc(F)cc5)nc4-c4ccc(F)cc4)n3)ccc21` returned an IC50 in [1] of 15 nM.

Regarding `CCN(CC)CCn1ccc2cc(Nc3nccc(-c4sc(C5CCN(S(=O)(=O)CC)CC5)nc4-c4ccc(F)cc4)n3)ccc21`, the IC50 in assay [1] was determined as 34 nM.

Consider `CN(C)CCn1ccc2cc(Nc3nccc(-c4sc(N5CCOCC5)nc4-c4ccc(F)cc4)n3)ccc21`, for which, in assay [1], the midpoint of inhibition, the IC50, lay at 26 nM.

In [1], `CCS(=O)(=O)Nc1nc(-c2ccc(F)cc2)c(-c2ccnc(Nc3ccc(N4CCN(C)CC4)c(C)c3)n2)s1` gave an IC50 of 3.6 nM.

Take `COc1ccc(-c2nccn2-c2ccnc(Nc3ccc4c(ccn4CCN(C)C)c3)n2)cc1`: in assay [1], the IC50 is 289 nM.

`CCS(=O)(=O)N1CCC(c2nc(-c3ccc(F)cc3)c(-c3ccnc(Nc4ccc(N5CCOCC5)cc4)n3)s2)CC1`: in [1], the half-maximal inhibitory concentration (IC50) was determined as 58 nM.

On to `CCS(=O)(=O)N1CCC(c2nc(-c3ccc(F)cc3)c(-c3ccnc(Nc4ccc(N5CCN(C)CC5)cc4)n3)s2)CC1`, for which the IC50 was 80 nM in [2]; 2.4 nM in assay [3]; 6 nM in assay [4]; 30 nM in assay [5]; 18 nM in assay [1]; 8 nM in assay [6]. Further, the IC50 was determined as 1200 nM in assay [7], 190 nM in [8], 52 nM in [9] and 166 nM in assay [10].

On to `CN(C)CCn1ccc2cc(Nc3nccc(-n4ccnc4-c4ccc(Cl)cc4)n3)ccc21`, for which the half-inhibitory concentration (IC50) in assay [1] came to 86 nM.

`CCS(=O)(=O)Nc1nc(-c2ccc(F)cc2)c(-c2ccnc(Nc3ccc4c(ccn4CCN(C)C)c3)n2)s1` showed a 50% inhibitory concentration (IC50) in [1] of 0.9 nM.

In the case of `CCS(=O)(=O)Nc1nc(-c2ccc(F)cc2)c(-c2ccnc(Nc3ccc(N4CCN(C)CC4)cc3)n2)s1`, 1.8 nM corresponded to half-maximal inhibition in assay [1] (IC50).

In assay [1], `CN(C)CCn1ccc2cc(Nc3nccc(-c4sc(NS(=O)(=O)C5CCCCC5)nc4-c4ccc(F)cc4)n3)ccc21` yielded an IC50 of 20 nM.

`CCS(=O)(=O)N1CCC(c2nc(-c3ccc(F)cc3)c(-c3ccnc(Nc4ccc(N5CCN(C)CC5)c(C)c4)n3)s2)CC1`: the IC50 in assay [2] came out at 40 nM; in [3], 5.8 nM; in [4] it was 35 nM; in assay [5], 70 nM; in [1], 36 nM; in assay [6] it was 17 nM. Further, the half-inhibitory concentration (IC50) came out at 610 nM in assay [7], 100 nM in assay [8], 67 nM in assay [9] and 289 nM in assay [10].

In the case of `CCS(=O)(=O)Nc1nc(-c2ccc(F)cc2)c(-c2ccnc(Nc3ccc(N4CCOCC4)cc3)n2)s1`, in [1], half-maximal inhibition (IC50) was put at 37 nM.

As to `CCN1CCN(c2ccc(Nc3nccc(-c4sc(NS(=O)(=O)CC)nc4-c4ccc(F)cc4)n3)cc2)CC1`, the half-inhibitory concentration (IC50) in [1] was found to be 2.2 nM.

In turn, `CCS(=O)(=O)Nc1nc(-c2ccc(F)cc2)c(-c2ccnc(Nc3ccc4c(ccn4CCN4CCOCC4)c3)n2)s1` came in with an IC50 in assay [1] of 6.3 nM.

In turn, `COc1cc(N2CCN(C)CC2)ccc1Nc1nccc(-n2ccnc2-c2ccc(F)cc2)n1` had a concentration for half-maximal inhibition (IC50) in assay [1] of 127 nM.

Compound `CN(C)CCn1ccc2cc(Nc3nccc(-n4ccnc4-c4ccc(F)cc4)n3)ccc21` had a 50% inhibitory concentration (IC50) in assay [1] of 17 nM.

In the case of `CC(=O)Nc1nc(-c2ccc(F)cc2)c(-c2ccnc(Nc3ccc4c(ccn4CCN(C)C)c3)n2)s1`, the IC50 was 8 nM in assay [2]; 2.1 nM in assay [3]; 20 nM in assay [4]; 14 nM in [5]; 3.2 nM in [1]; 4.9 nM in assay [6]. The IC50 came out at 450 nM in [7], 340 nM in assay [8], 66 nM in [9] and 159 nM in [10].

Compound `CCS(=O)(=O)Nc1nc(-c2ccc(F)cc2)c(-c2ccnc(Nc3ccc(N4CCN(C(C)C)CC4)cc3)n2)s1` returned a concentration for half-maximal inhibition (IC50) in assay [1] of 3.7 nM.

Regarding `C=CC(=O)Nc1cc(Nc2nccc(-c3cn(C)c4ccccc34)n2)c(OC)cc1N(C)CCN(C)C` [OSIMERTINIB], the half-inhibitory concentration (IC50) is 2200 nM in [2], 5 nM in assay [4], […] in assay [7] and […] in assay [8].

`CN1CCN(c2ccc(Nc3nccc(-n4ccnc4-c4ccc(F)cc4)n3)cc2)CC1` came in with an IC50 in assay [1] of 63 nM.

Consider `CN(C)CCn1ccc2cc(Nc3nccc(-c4sc(NS(C)(=O)=O)nc4-c4ccc(F)cc4)n3)ccc21`, for which the 50% inhibitory concentration (IC50) in assay [1] amounted to 2.5 nM.

`COc1cc(N2CCC(N3CCN(C)CC3)CC2)ccc1Nc1ncc(Cl)c(Nc2ccccc2P(C)(C)=O)n1` [BRIGATINIB]: the Activity in assay [11] is given as 78.4%; in assay [13], 10.5%; in assay [14], 11.58%; in [15], 11.1%. Also, in assay [12], the TGI (commonly how far tumour growth fell short of that in controls) came to 59.8%. The half-inhibitory concentration (IC50) in [2] is 390 nM; in [4], 87 nM; in [7], 510 nM; in assay [8] it was 320 nM.

On to `CN(C)CCn1ccc2cc(Nc3nccc(-c4sc(N)nc4-c4ccc(F)cc4)n3)ccc21`, for which, in [1], half-maximal inhibition (IC50) was put at 2.1 nM.

Regarding `CCS(=O)(=O)Nc1nc(-c2ccc(F)cc2)c(-c2ccnc(Nc3ccc(N4CCOCC4)c(F)c3)n2)s1`, the concentration for half-maximal inhibition (IC50) in assay [1] worked out at 4.1 nM.

`CN(C)CCn1ccc2cc(Nc3nccc(-n4ccnc4-c4cccc(F)c4)n3)ccc21`: the concentration for half-maximal inhibition (IC50) in assay [1] turned out to be 90 nM.

`CC(C)c1nc(-c2ccc(F)cc2)c(-c2ccnc(Nc3ccc4c(ccn4CCN(C)C)c3)n2)s1` displayed an IC50 in assay [1] of 20 nM.

`CCN1CCN(c2ccc(Nc3nccc(-c4sc(C5CCN(S(=O)(=O)CC)CC5)nc4-c4ccc(F)cc4)n3)cc2)CC1` displayed an IC50 in assay [1] of 26 nM.

`CCS(=O)(=O)Nc1nc(-c2ccc(F)cc2)c(-c2ccnc(Nc3ccc(N4CCN(C)CC4)cc3OC)n2)s1` had a concentration for half-maximal inhibition (IC50) in assay [1] of 2.5 nM.

`CCS(=O)(=O)N1CCC(c2nc(-c3ccc(F)cc3)c(-c3ccnc(Nc4ccc(N5CCOCC5)c(F)c4)n3)s2)CC1` displayed a 50% inhibitory concentration (IC50) in [1] of 77 nM.

On to `CCS(=O)(=O)N1CCC(c2nc(-c3ccc(F)cc3)c(-c3ccnc(Nc4ccc5c(ccn5CCN5CCOCC5)c4)n3)s2)CC1`, for which inhibition in [1] was half-maximal at 71 nM (IC50).

For `CN(C)CCn1ccc2cc(Nc3nccc(-n4ccc(-c5ccc(F)cc5)n4)n3)ccc21`, in assay [1], the IC50 came to 409 nM.

Take `CCS(=O)(=O)N1CCC(c2nc(-c3ccc(F)cc3)c(-c3ccnc(Nc4ccc(N5CCN(C)CC5)cc4OC)n3)s2)CC1`: the IC50 in assay [1] turned out to be 71 nM.

The compound `CNc1nc(-c2ccc(F)cc2)c(-c2ccnc(Nc3ccc4c(ccn4CCN(C)C)c3)n2)s1` registered an IC50 in assay [1] of 19 nM.

Regarding `CCS(=O)(=O)Nc1nc(-c2ccc(F)cc2)c(-c2ccnc(Nc3cc(-c4cnn(C)c4)c(N4CCOCC4)cc3OC)n2)s1`, the IC50 in [1] came to 70.1 nM.

The compound `CCCCS(=O)(=O)Nc1nc(-c2ccc(F)cc2)c(-c2ccnc(Nc3ccc4c(ccn4CCN(C)C)c3)n2)s1` showed a concentration for half-maximal inhibition (IC50) in assay [1] of 4.3 nM.

In assay [1], `Cc1nc(-c2ccc(F)cc2)c(-c2ccnc(Nc3ccc4c(ccn4CCN(C)C)c3)n2)s1` displayed a 50% inhibitory concentration (IC50) of 11 nM.

For `CCS(=O)(=O)N1CCC(c2nc(-c3ccc(F)cc3)c(-c3ccnc(Nc4ccc(N5CCOCC5)cc4OC)n3)s2)CC1`, the IC50 in assay [1] was found to be 71 nM.

In assay [1], `CC(C)S(=O)(=O)Nc1nc(-c2ccc(F)cc2)c(-c2ccnc(Nc3ccc4c(ccn4CCN(C)C)c3)n2)s1` registered an IC50 of 3.4 nM.

As for `CCS(=O)(=O)N1CCC(c2nc(-c3ccc(F)cc3)c(-c3ccnc(Nc4ccc(N5CCN(C(C)C)CC5)cc4)n3)s2)CC1`, half-maximal inhibition in [1] (IC50) required 49 nM.

With `COc1cc(N2CCC(N3CCN(C)CC3)CC2)c(C)cc1Nc1nccc(-n2ccnc2-c2ccc(F)cc2)n1`, in assay [1], the IC50 is 28 nM.

In assay [1], `CCS(=O)(=O)N1CCC(c2nc(-c3ccc(F)cc3)c(-c3ccnc(Nc4ccc(C5CCN(C)CC5)cc4)n3)s2)CC1` came in with an IC50 of 15 nM.

Turning to `CN(C)CCn1ccc2cc(Nc3nccc(-n4ccnc4-c4ccc(C(F)(F)F)cc4)n3)ccc21`, the half-maximal inhibitory concentration (IC50) in assay [1] is > 1000 nM.
